Data set [1] can be described thus: Rainbow trout feeding trial: astaxanthin levels in fillets before and after freezing and smoking. The format is in vivo. As to conditions: rainbow trout, fillet (flesh), oral, Control treatment, averaged over three fillet zones, read-out: HPLC astaxanthin level Average. As to the method:
(§1) Rainbow trout fed synthetic or Adonis-derived astaxanthin in a feeding trial were harvested 63 days after the feeding trial started and the astaxanthin levels were examined spectrophotometrically (Minolta Chroma Meter) and chemically (by HPLC analysis after lipid removal from the flesh extract) before and after freezing (2 months) and smoking. The initial astaxanthin levels in the feed were adjusted to achieve similar levels of pigmentation of the fish before treatments were carried out. Because pigment levels vary along the length of the fish, measurements were carried out at three positions along each fish (head, mid-body and tail).

Another data set concerns Rainbow trout. Described as above. The format is in vivo. The settings on record: averaged over three fillet zones. The method, then: as §1
For a further data set, the system named is A. palaestina. The data set can be described thus: Seed germination after gibberellic acid pre-soak. The class given is in vivo, Adonis palaestina. The method, then:
Adonis […] populations were evaluated for seed viability and germination. Although seed viability is fair (about 30 to about 70%), germination is very low.

The test system of another data set is Sclerotinia sclerotiorum. Put plainly: Dosage effect of pure cardenolides on pathogen growth (Sclerotinia). As to conditions: pure cardenolide. The format is cell-based. As to the method: Two different cardenolides (cymarin and strophanthidin) were assessed for their dosage effect on pathogen response.
Data set [2] concerns Adonis. Put plainly: Pre-emergence herbicide trial: Adonis seedling establishment. As to conditions: for Adonis seedling density: after graminicide stress treatment. The class given is in vivo, Adonis palaestina.
Another data set has as its system Adonis seedlings. The source says:
Seedlings emerging from metribuzin-treated soil were sprayed with a grass-specific herbicide [graminicide; (RS)-7-(4,6-dimethoxypyrimidin-2-ylthio)-3-methyl-2-benzofuran-1(3H)-one] at the seed leaf stage; this would normally be expected to “check” the seedlings (i.e.; cause a degree of non-lethal stress) when applied at the usual time (three true leaf stage).

Data set [3] relates to Weed. The data set can be described thus: Pre-emergence herbicide trial: weed control. The format is in vivo.
In data set [4] the test system is Weed. Put plainly: Container trials: weed control at reduced metribuzin level. The format is in vivo.
The test system of data set [5] is Adonis. The settings on record: at high pH.
Procedure: Container trials were conducted on the effect of sand content and soil pH on metribuzin-associated Adonis mortality.
Where [6] appears, read: 12.5 % manufacturer's recommended rate.
[7] abbreviates: 25 % manufacturer's recommended rate.
[8] abbreviates: 50 % manufacturer's recommended rate.

Read-outs that look alike come from different tables or passages of the source. Marks after values point to notes of the source that are not given here.

Regarding `CC1=C(/C=C/C(C)=C/C=C/C(C)=C/C=C/C=C(C)/C=C/C=C(C)/C=C/C2=C(C)C(=O)C(O)CC2(C)C)C(C)(C)CC(O)C1=O` (stereo not drawn) [Synthetic, 3,3′-dihydroxy-β,β-carotene-4,4′-dione], the concentration at 63 days in [1] was 15100 ng/g. Further, the “Spectrophotometric (Hunter a values) Average” value is 6.5 in the data set on Rainbow trout (Control treatment, harvested 63 days); 4.2 in the data set on Rainbow trout (Frozen (2 months)); 5.8 with Rainbow trout (Smoked). In addition, the “HPLC astaxanthin level Average” value is given as 11.2 mg/kg fish in the data set on Rainbow trout (Frozen (2 months)) and 14.0 mg/kg fish in the data set with Rainbow trout (Smoked).
Consider `C=C1C[C@]23C[C@@]1(O)CC[C@H]2[C@@]12C=C[C@H](O)[C@@](C)(C(=O)O1)[C@H]2[C@@H]3C(=O)O` [Gibberellic acid, gibberellic acid], for which the germination result in the data set with A. palaestina (24-hour incubation with GA in ethanol at room temperature) was “further improved germination”; in the data set with A. palaestina (pre-soaking seed in 5000 ppm for 24 hours before sowing) it was 64.7%. Also, the “% germination” value is 4.3% with A. palaestina (1000 ppm, pre-soak 24 hours, 4 °C); 8.7% in the data set with A. palaestina (1000 ppm, pre-soak 24 hours, 16 °C); 13.7% in the data set on A. palaestina (1000 ppm, pre-soak 48 hours, 4 °C); 22.3% in the data set on A. palaestina (1000 ppm, pre-soak 48 hours, 16 °C); 10.7% with A. palaestina (2000 ppm, pre-soak 24 hours, 4 °C); 12.6% in the data set with A. palaestina (2000 ppm, pre-soak 24 hours, 16 °C). Moreover, the “% germination” value in the data set on A. palaestina (2000 ppm, pre-soak 48 hours, 4 °C) was 20.4%; with A. palaestina (2000 ppm, pre-soak 48 hours, 16 °C) it was 28.7%; in the data set on A. palaestina (3500 ppm, pre-soak 24 hours, 4 °C), 21.4%; in the data set with A. palaestina (3500 ppm, pre-soak 24 hours, 16 °C), 25.7%; in the data set on A. palaestina (3500 ppm, pre-soak 48 hours, 4 °C) it was 28.7%; in the data set on A. palaestina (3500 ppm, pre-soak 48 hours, 16 °C), 45.7%. Moreover, the “% germination” value with A. palaestina (5000 ppm, pre-soak 24 hours, 4 °C) is recorded as 28.0%; with A. palaestina (5000 ppm, pre-soak 24 hours, 16 °C), 34.7%; in the data set with A. palaestina (5000 ppm, pre-soak 48 hours, 4 °C), 40.3%; in the data set on A. palaestina (5000 ppm, pre-soak 48 hours, 16 °C), 64.7%.
Consider `C[C@]12CC[C@H]3[C@@H](CC[C@]4(O)C[C@@H](O)CC[C@]34C=O)[C@@]1(O)CC[C@@H]2C1=CC(=O)OC1` [strophanthidin], for which the “growth of Sclerotinia” value with Sclerotinia sclerotiorum was “inhibited”.
Consider `CSc1nnc(C(C)(C)C)c(=O)n1N` [Metribuzin, 4-amino-6-tert-butyl-4,5-dihydro-3-methlythio-1,2,4-triazin-5-one], for which the Adonis seedling density is 12.1 m^−2 with Adonis [2] (setting [6]), 5.9 m^−2 with Adonis [2] (setting [7]) and 1.2 m^−2 in the data set with Adonis [2] (setting [8]). Also, the “safety on Adonis” value in the data set with Adonis [2] (pre-emergence herbicide) is given as “could be used safely on Adonis”. Further, the seedling death with Adonis seedlings (500 g/ha metribuzin, graminicide sprayed at seed leaf stage) came to 30%. The Adonis density in the data set on Adonis seedlings (Metribuzin 250 g/ha, +Graminicide, −Urea) is on record as 97 # plants m^−2; in the data set on Adonis seedlings (Metribuzin 250 g/ha, −Graminicide, +Urea) it was 107 # plants m^−2; with Adonis seedlings (Metribuzin 250 g/ha, −Graminicide, −Urea), 103 # plants m^−2; with Adonis seedlings (Metribuzin 500 g/ha, +Graminicide, +Urea), 94 # plants m^−2; with Adonis seedlings (Metribuzin 500 g/ha, +Graminicide, −Urea), 65 # plants m^−2; with Adonis seedlings (Metribuzin 500 g/ha, −Graminicide, +Urea), 104 # plants m^−2. In addition, the Adonis density with Adonis seedlings (Metribuzin 500 g/ha, −Graminicide, −Urea) is listed as 98 # plants m^−2; in the data set with Adonis seedlings (Metribuzin (pre) + 250 (post) g/ha, +Graminicide, +Urea), 107 # plants m^−2; with Adonis seedlings (Metribuzin (pre) + 250 (post) g/ha, +Graminicide, −Urea) it was 105 # plants m^−2; in the data set on Adonis seedlings (Metribuzin (pre) + 250 (post) g/ha, −Graminicide, +Urea) it was 102 # plants m^−2; in the data set with Adonis seedlings (Metribuzin (pre) + 250 (post) g/ha, −Graminicide, −Urea) it was 100 # plants m^−2. For the same molecule, the results for the Weed density in the data set with Weed [3] (setting [6]), in the data set on Weed [3] (setting [7]) and in the data set with Weed [3] (setting [8]) were 85 % cover, 79 % cover and 56 % cover, respectively. Further, the weed control result with Weed [4] (125 g/ha) is reported as “inadequate”; in the data set with Weed [4] (250 g/ha), “reasonable weed control”.
For `CO[C@H]1C[C@H](O[C@H]2CC[C@]3(C=O)[C@H]4CC[C@]5(C)[C@@H](C6=CC(=O)OC6)CC[C@]5(O)[C@@H]4CC[C@]3(O)C2)O[C@H](C)[C@H]1O` [cymarin], the “growth of Sclerotinia” value in the data set on Sclerotinia sclerotiorum was “inhibited”.
As to `COC(=O)NS(=O)(=O)c1ccc(N)cc1` [Asulox ®, methyl(4-aminophenyl)sulfonylaminoformate], the Weed density in the data set on Weed [3] (setting [7]) was determined as 86 % cover; in the data set on Weed [3] (setting [8]), 74 % cover; with Weed [3] (100 % manufacturer's recommended rate) it was 87 % cover. For the same molecule, in the data set with Weed [3] (pre-emergence herbicide), the weed control entry is “did not achieve much weed control”.
For the molecule `NC(N)=O` [Urea, urea], in the data set on Adonis seedlings (Metribuzin 0 g/ha, −Graminicide, +Urea), the Adonis density is 95 # plants m^−2.
Regarding `CCOP(=S)(OCC)Oc1nc(Cl)n(C(C)C)n1` [isazophos, O-(5-Chloro-1-(1-methylethyl)-1H-1,2,4-triazol-3-yl) O,O-diethyl phosphorothioate], the “interaction with metribuzin (Adonis mortality)” value with Adonis [5] is “negative interaction”.
